Experimental data reported in patent publication US20070203158A1, “Fungicidal Mixtures” (BASF AKTIENGESELLSCHAFT, priority 2004, published 2007).

Tested on: Plasmopara viticola
Test: Activity against peronospora of grapevines caused by Plasmopara viticola (protective spray on potted vines)
Format: in vivo
Conditions: individual active compound, untreated control 89% infection
Description: The active compounds, separately or jointly, were prepared as a stock solution comprising 0.25% by weight of active compound in acetone or DMSO. 1% by weight of the emulsifier Uniperol® EL (wetting agent having emulsifying and dispersant action based on ethoxylated alkylphenols) was added to this solution, and the mixture was diluted with water to the desired concentration.
Leaves of potted vines were sprayed to runoff point with an aqueous suspension having the concentration of active compound stated below. The next day, the undersides of the leaves were inoculated with an aqueous sporangia suspension of Plasmopara viticola. The grapevines were then initially placed in a water-vapor-saturated chamber at 24° C. for 48 hours and then in a greenhouse at 20-30° C. for 5 days. After this period of time, the plants were again placed in a humid chamber for 16 hours to promote sporangiophore eruption. The extent of the development of the disease on the undersides of the leaves was then determined visually.
The visually determined percentages of infected leaf areas were converted into efficacies in % of the untreated control:
The efficacy (E) is calculated as follows using Abbot's formula: E=(1−α/β)·100 • α corresponds to the fungicidal infection of the treated plants in % and • β corresponds to the fungicidal infection of the untreated (control) plants in %
An efficacy of 0 means that the infection level of the treated plants corresponds to that of the untreated control plants; an efficacy of 100 means that the treated plants are not infected.
The expected efficacies of mixtures of active compounds were determined using Colby's formula (Colby, S. R. “Calculating synergistic and antagonistic responses of herbicide combinations”, Weeds, 15, 20-22, 1967) and compared with the observed efficacies.
Colby's formula: E=x+y−x·y/100 • E expected efficacy, expressed in % of the untreated control, when using the mixture of the active compounds A and B at the concentrations a and b • x efficacy, expressed in % of the untreated control, when using the active compound A at the concentration a
y efficacy, expressed in % of the untreated control, when using the active compound B at the concentration b

Compound: CC1CCN(c2c(-c3c(F)cc(F)cc3F)c(Cl)nc3ncnn23)CC1 [compound I, 5-chloro-7-(4-methylpiperidin-1-yl)-6-(2,4,6-trifluorophenyl)-[1,2,4]tri-azolo[1,5-a]pyrimidine]
- Efficacy in % of the untreated control (1 ppm in the spray liquor): 0%
- Efficacy in % of the untreated control (4 ppm in the spray liquor): 33%

Compound: CO/C=C(/C(=O)OC)c1ccccc1COc1cccc(C(F)(F)F)n1 [compound II, methyl 3-methoxy-2-[2-(6-trifluoromethylpyridin-2-yloxymethyl)phenyl]acrylate]
- Efficacy in % of the untreated control (1 ppm in the spray liquor): 33%
- Efficacy in % of the untreated control (4 ppm in the spray liquor): 66%
